Earlier results in patent US8644910B2, “Imaging protocols” (Biosensors International Group, Ltd., priority 2005, dated 2014).
Where two headings read alike, the source gives them in different places. Blank lines part the entries; values can stand above or below the compound they belong to.

Columns and labels:
[1] = administration to lactating women
[2] = 600 MBq, common bone scan
[3] = stored at 15-25° C. before and after reconstitution
[4] = not given; remark: listed apart in the source
[5] = prepared product

breast feeding interruption advised [1]: Complete cessation
Compound: O=C([O-])CC(O)(CC(=O)[O-])C(=O)[O-].[Ga+3] [^67Ga-citrate, Gallium Citrate]

effective dose [2]: 3 mSv
Compound: O=P(O)(O)CP(=O)(O)O [^99mTc-MDP, medronate, metal not drawn]

Compound: [99Tc].[C-]#[N+]CC(C)(C)OC.[C-]#[N+]CC(C)(C)OC.[C-]#[N+]CC(C)(C)OC.[C-]#[N+]CC(C)(C)OC.[C-]#[N+]CC(C)(C)OC.[C-]#[N+]CC(C)(C)OC [^99mTc-Sestamibi, technetium-99m-methoxyisobutylisonitrile]
time for use after preparation [3]: ≤ 6 h | cleared through the feces (in 48 hours): approximately thirty-three | excreted in the urine (in vivo): Twenty-seven | major pathway for clearance (in vivo): hepatobiliary system | metabolism (in vivo): excreted without any evidence of metabolism | Myocardial uptake ([4]; at exercise): 1.5 % of the injected dose | Myocardial uptake ([4]; at rest): 1.2 % of the injected dose

Compound: [Na+].[O]=[Tc](=[O])(=[O])[O-] [^99mTc-pertechnetate, Sodium pertechnetate]
breast feeding interruption advised [1]: brief interruption (hours to days)

breast feeding interruption advised [1]: brief interruption (hours to days)
Compound: N=C(N)NCc1cccc([131I])c1 [^123I-metaiodobenzylguanidine, metaiodobenzylguanidine]

Compound: [I-].[Na+] [^123I-sodium iodide, sodium iodide]
breast feeding interruption advised [1]: Complete cessation

Compound: [Cl][201Tl] [^201Tl, Tl-201-thallous chloride]
breast feeding interruption advised [1]: brief interruption (hours to days)

Compound: Technetium Tc 99m Arcitumomab (CEA-Scan)
shelf life [5]: ≤ 4 h
